molecular target: T1, human GPR139 (Homo sapiens, UniProt Q6DWJ6); assay: Inhibition rate of the amount of IP1 in GPR139-expressed CHO cells (inverse agonist assay, Test Example 2); assay type: cell-based; settings: CHO, relative value, inhibition rate of Example Compound 2 in Test Example 1 defined as 100%
T1 construct: expressed in transfected cells; host or cells: CHO-TREx (Life Technologies) cells, expression induced with doxycycline
T1 sequence (Q6DWJ6 1-353): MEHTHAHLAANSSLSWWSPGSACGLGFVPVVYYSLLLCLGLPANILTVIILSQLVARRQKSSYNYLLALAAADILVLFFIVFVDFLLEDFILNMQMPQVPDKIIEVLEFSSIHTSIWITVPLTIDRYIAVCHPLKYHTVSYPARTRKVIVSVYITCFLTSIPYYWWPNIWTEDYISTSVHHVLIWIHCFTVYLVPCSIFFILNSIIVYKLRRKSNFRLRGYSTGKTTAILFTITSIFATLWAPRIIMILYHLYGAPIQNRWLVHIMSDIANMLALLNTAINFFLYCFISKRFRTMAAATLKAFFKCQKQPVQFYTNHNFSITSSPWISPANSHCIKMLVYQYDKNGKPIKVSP
Experimental: The measurement of IP1 was made using an IP-ONE HTFR assay kit (cis-bio) and CHO-TREx (Life Technologies) cells stably transfected with GPR139. The CHO-TREx cells expressed human GPR139 with a tetracycline-inducing element. The cells were cultured in a medium containing F12K and 10% tetracycline-free FBS, and the expression of human GPR139 was induced over the course of 17 hours under conditions of 37° C. and 5% CO2 in the presence of 2 μg/mL of doxycycline (Clontech, 631311) in the growth medium on the day before assay. On the day of the test, after the cells were washed with 10 mL of PBS, the cells were detached with TrypLE Express (Life Technologies) and centrifuged at 1,000 rpm to form pellets, and a cell suspension was then prepared using a stimulation buffer (cis-bio, included in the IP-ONE HTRF assay kit).
The compound was diluted with the stimulation buffer, and 4 μL was added to a 384-well white assay plate (Greiner). The cell suspension was added so that there were 2000 cells per well, and the assay plate was left to stand for 40 minutes at 37° C. Equal amounts of IP1-d2 and Ab-Crp solutions (both available from cis-bio, included in the IP-ONE HTRF assay kit) prepared with a lysis buffer (cis-bio, included in the IP-ONE HTRF assay kit) were mixed, and 4 μL was added to the assay plate and left to stand for one hour at room temperature. After the fluorescence strengths of two wavelengths were measured by the HTRF settings of Envision (PerkinElmer), the value of Ratio={(Signal 665 nm)/(Signal 615 nm)}×10000 was calculated.
Measurement of the Inhibition Rate of the Amount of IP1 in GPR139-Expressed CHO Cells (Inverse Agonist Assay)
The activities of the compounds of Examples 1 and 3 to 167 were expressed as relative values in Table 2 by measuring the inhibition rate of the amount of IP1 with the same method as in Test Example 1 and defining the inhibition rate of the amount of IP1 of Example Compound 2 in Test Example 1 as […].

inhibition at 30 µM [%]	Compound
100	CCn1cc(Cn2cc(C)n(-c3cc(N4CCC(F)(F)CC4)cc(C(F)(F)F)c3)c2=O)cn1 [Example 19, 3-[3-(4,4-difluoropiperidin-1-yl)-5-(trifluoromethyl)phenyl]-1-[(1-ethyl-1H-pyrazol-4-yl)methyl]-4-methyl-1,3-dihydro-2H-imidazol-2-one]
101	CCn1cc(Cn2cc(C)n(-c3cc(Br)cc(N4CCO[C@H](C)C4)c3)c2=O)cn1 [Example 89, 3-{3-bromo-5-[(2R)-2-methylmorpholin-4-yl]phenyl}-1-[(1-ethyl-1H-pyrazol-4-yl)methyl]-4-methyl-1,3-dihydro-2H-imidazol-2-one]
100	CCn1cc(Cn2cc(C)n(-c3cc(C4CC4)cc(N4CCOC(C)(C)C4)c3)c2=O)cn1 [Example 147, 3-[3-cyclopropyl-5-(2,2-dimethylmorpholin-4-yl)phenyl]-1-[(1-ethyl-1H-pyrazol-4-yl)methyl]-4-methyl-1,3-dihydro-2H-imidazol-2-one]
99	CCn1cc(Cn2cc(C)n(-c3cc(N4CCOC(C(F)F)C4)cc(C(F)(F)F)c3)c2=O)cn1 (stereo not drawn) [Example 20, 3-{3-[2-(difluoromethyl)morpholin-4-yl]-5-(trifluoromethyl)phenyl}-1-[(1-ethyl-1H-pyrazol-4-yl)methyl]-4-methyl-1,3-dihydro-2H-imidazol-2-one]
101	CCn1cc(Cn2ccn(-c3cc(N4CCOC(F)(F)C4)cc(C(F)(F)F)c3F)c2=O)cn1 [Example 40, 1-[5-(2,2-difluoromorpholin-4-yl)-2-fluoro-3-(trifluoromethyl)phenyl]-3-[(1-ethyl-1H-pyrazol-4-yl)methyl]-1,3-dihydro-2H-imidazol-2-one]
100	CCn1cc(Cn2cc(C)n(-c3cc(C4CCC(F)(F)CC4)cc(C(F)(F)F)c3)c2=O)cn1 [Example 33, 3-[3-(4,4-difluorocyclohexyl)-5-(trifluoromethyl)phenyl]-1-[(1-ethyl-1H-pyrazol-4-yl)methyl]-4-methyl-1,3-dihydro-2H-imidazol-2-one]
103	CCn1cc(Cn2c(C)c(C)n(-c3cc(C(F)(F)F)cc(OC[C@H]4CCCO4)n3)c2=O)cn1 [Example 114, 1-[(1-ethyl-1H-pyrazol-4-yl)methyl]-4,5-dimethyl-3-[6-{[(2R)-oxolan-2-yl]methoxy}-4-(trifluoromethyl)pyridin-2-yl]-1,3-dihydro-2H-imidazol-2-one]
100	CCn1cc(Cn2c(C)cn(-c3cc(N4CCO[C@H](C)C4)cc(C(F)(F)F)c3F)c2=O)cn1 [Example 25, 3-[(1-ethyl-1H-pyrazol-4-yl)methyl]-1-{2-fluoro-5-[(2R)-2-methylmorpholin-4-yl]-3-(trifluoromethyl)phenyl}-4-methyl-1,3-dihydro-2H-imidazol-2-one]
100	CCn1cc(Cn2c(C)c(C)n(-c3cc(N4CCOC(F)(F)C4)cc(C(F)(F)F)c3)c2=O)cn1 [Example 63, 1-[3-(2,2-difluoromorpholin-4-yl)-5-(trifluoromethyl)phenyl]-3-[(1-ethyl-1H-pyrazol-4-yl)methyl]-4,5-dimethyl-1,3-dihydro-2H-imidazol-2-one]
96	CCn1cc(Cn2ccn(-c3cc(-c4ccc(F)cc4)cc(C4CC4(F)F)c3F)c2=O)cn1 (stereo not drawn) [Example 131]
100	CCc1nn(-c2cc(N3CCOC(C)(C)C3)cc(C(F)(F)F)c2F)c(=O)n1Cc1cnn(CC)c1 [Example 136, 2-[5-(2,2-dimethylmorpholin-4-yl)-2-fluoro-3-(trifluoromethyl)phenyl]-5-ethyl-4-[(1-ethyl-1H-pyrazol-4-yl)methyl]-2,4-dihydro-3H-1,2,4-triazol-3-one]
99	Cc1nn(-c2cc(N3CCO[C@H](C)C3)cc(OC(F)(F)F)c2F)c(=O)n1Cc1cnn(C(C)C)c1 [Example 159, 2-{2-fluoro-5-[(2R)-2-methylmorpholin-4-yl]-3-(trifluoromethoxy)phenyl}-5-methyl-4-{[1-(propan-2-yl)-1H-pyrazol-4-yl]methyl}-2,4-dihydro-3H-1,2,4-triazol-3-one]
98	CCn1cc(Cn2cc(C)n(-c3cc(OCC4CC(F)(F)C4)cc(C(F)F)c3)c2=O)cn1 [Example 68, 3-{3-[(3,3-difluorocyclobutyl)methoxy]-5-(difluoromethyl)phenyl}-1-[(1-ethyl-1H-pyrazol-4-yl)methyl]-4-methyl-1,3-dihydro-2H-imidazol-2-one]
99	CC(C)n1cc(Cn2ccn(-c3nc(N4CCOC(C)(C)C4)cc(C(F)(F)F)c3F)c2=O)cn1 [Example 132, 1-[6-(2,2-dimethylmorpholin-4-yl)-3-fluoro-4-(trifluoromethyl)pyridin-2-yl]-3-{[1-(propan-2-yl)-1H-pyrazol-4-yl]methyl}-1,3-dihydro-2H-imidazol-2-one]
99	CCn1cc(Cn2c(C)c(C)n(-c3cc(OCC(F)(F)F)cc(N(C)C4CCOCC4)c3)c2=O)cn1 [Example 73, 1-[(1-ethyl-1H-pyrazol-4-yl)methyl]-4,5-dimethyl-3-{3-[methyl(oxan-4-yl)amino]-5-(2,2,2-trifluoroethoxy)phenyl}-1,3-dihydro-2H-imidazol-2-one]
98	CCn1cc(Cn2cc(C)n(-c3nc(N4CCOC(C)(C)C4)cc(C(F)(F)F)n3)c2=O)cn1 [Example 134, 3-[4-(2,2-Dimethylmorpholine-4-yl)-6-(trifluoromethyl)pyrimidine-2-yl]-1-[(1-ethyl-H-pyrazole-4-yl)methyl]-4-methyl-1,3-dihydro-2H-imidazole-2-one]
98	Cc1cc(N2CCO[C@H](C)C2)cc(-n2cc(C)n(Cc3cnn(C(C)C)c3)c2=O)c1F [Example 87, 1-{2-fluoro-3-methyl-5-[(2R)-2-methylmorpholin-4-yl]phenyl}-4-methyl-3-{[1-(propan-2-yl)-1H-pyrazol-4-yl]methyl}-1,3-dihydro-2H-imidazol-2-one]
98	CCn1cc(Cn2c(C)cn(-c3cc(N4CCOC(C)(C)C4)cc(Cl)c3F)c2=O)cn1 [Example 166, 1-[3-chloro-5-(2,2-dimethylmorpholin-4-yl)-2-fluorophenyl]-3-[(1-ethyl-1H-pyrazol-4-yl)methyl]-4-methyl-1,3-dihydro-2H-imidazol-2-one]
102	CCn1cc(Cn2cc(C)n(-c3cc(OC4CCOCC4)cc(C(F)(F)F)c3)c2=O)cn1 [Example 6, 1-[(1-ethyl-1H-pyrazol-4-yl)methyl]-4-methyl-3-{3-[(oxan-4-yl)oxy]-5-(trifluoromethyl)phenyl}-1,3-dihydro-2H-imidazol-2-one]
99	CCn1cc(Cn2c(C)cn(-c3nc(N4CCO[C@H](C)C4)cc(C(F)(F)F)c3F)c2=O)cn1 [Example 30]
101	CCn1cc(Cn2c(C)nn(-c3cc(N4CCOC(C)(C)C4)cc(C(F)(F)F)c3F)c2=O)cn1 [Example 96, 2-[5-(2,2-dimethylmorpholin-4-yl)-2-fluoro-3-(trifluoromethyl)phenyl]-4-[(1-ethyl-1H-pyrazol-4-yl)methyl]-5-methyl-2,4-dihydro-3H-1,2,4-triazol-3-one]
100	CCn1cc(Cn2cc(C)n(-c3cc(N4C[C@@H](C)O[C@@H](C)C4)cc(C(F)(F)F)c3)c2=O)cn1 [Example 23, 3-{3-[(2R,6S)-2,6-dimethylmorpholin-4-yl]-5-(trifluoromethyl)phenyl}-1-[(1-ethyl-1H-pyrazol-4-yl)methyl]-4-methyl-1,3-dihydro-2H-imidazol-2-one]
103	CCn1cc(Cn2c(C)c(C)n(-c3cc(C(F)(F)F)cc(OC[C@@H]4CCCO4)n3)c2=O)cn1 [Example 115, 1-[(1-ethyl-1H-pyrazol-4-yl)methyl]-4,5-dimethyl-3-[6-{[(2S)-oxolan-2-yl]methoxy}-4-(trifluoromethyl)pyridin-2-yl]-1,3-dihydro-2H-imidazol-2-one]
100	CCn1cc(Cn2ccn(-c3cc(OC[C@@H]4CCCO4)cc(C(F)(F)F)c3F)c2=O)cn1 [Example 118, 1-[(1-ethyl-1H-pyrazol-4-yl)methyl]-3-[2-fluoro-5-{[(2S)-oxolan-2-yl]methoxy}-3-(trifluoromethyl)phenyl]-1,3-dihydro-2H-imidazol-2-one]

Reference: patent US12630534B2 (TAKEDA PHARMACEUTICAL COMPANY LIMITED, priority 2020, dated 2026)
